Experimental data taken from US20240207454A1, “NEURO-BEHAVIORAL ASSAY FOR PHYSIOLOGICAL EVALUATION OF WATER-SOLUBLE ANESTHETICS” (Northeastern University, priority 2022, published 2024).
Where two headings read alike, the source gives them in different places.

How the values were obtained:
[1] = test system: Apteronotus leptorhynchus; experiment: Neuro-behavioral assay: locomotor activity and induction of anesthesia; assay type: in vivo; conditions: for Treatment time until anal fin undulation and opercular movement ceased, including transfer to and from the beaker: 2.5% urethane or 0.02% MS-222 immersion
Experimental: FIG. 30 Locomotor activity inferred from amplitude fluctuations of the EOD. After recording of the baseline EOD for 6 min, the fish was transferred to a 0.02% MS-222 solution in aquarium water for 5 min. After return of the fish to its home tank, the EOD recording continued for 15 min. To determine the locomotor activity index, positive and negative deviations from an arbitrarily set threshold value of the amplitude were determined every 1 sec, and the standard deviation of the absolute values of these amplitude deviations were calculated for 30-sec time windows. […] Recovery of the locomotor activity occurred within some 2 min after the fish was returned to its home tank (filled circles).
The experimental design is outlined in FIG. 2. To determine the baseline EOD frequency, the fish's EOD was recorded for 30 min. Then, the fish was transferred into a glass beaker containing either 2.5% urethane (Acros Organics, New Jersey, USA) or 0.02% MS-222 (Western Chemical, Washington, USA), each dissolved in water from the fish's isolation tank. As a control, the fish was moved into an identical glass beaker containing aquarium water only. The temperatures of the anesthetic solutions or the aquarium water in the beaker were similar (±1° C.) to the temperature of the water in the fish's isolation tank.
The fish was left in the anesthetic solution until both anal fin undulation and opercular movement ceased. It was then returned to its isolation tank where recording of the EOD continued for 180 min. For urethane anesthesia, treatment including transfer to and from the beaker took between 4-5 min. MS-222 anesthesia required longer exposure to the anesthetic so that the entire treatment lasted between 9-15 min. Control experiments were designed such that the handling of the fish and the time the fish spent outside its isolation tank were similar to the corresponding anesthesia experiments (urethane control: 5-8 min; MS-222 control: 7-10 min).
(§1) To examine the effect of eugenol on EOD frequency and chirping behavior, the following experiments were conducted using 8 fish (FIG. 11): First, the baseline EOD was recorded in the fish's home tank (50 cm×30 cm×30 cm) for 30 min. Then, for the 5-min treatment session, the shelter tube with the fish was transferred to a smaller (experimental) tank (30 cm×20 cm×20 cm) containing either eugenol dissolved in aquarium water at a certain concentration (30 μL/L, 45 μL/L, or 60 μL/L; ‘test condition’) or aquarium water only (‘control condition’). The temperature in the experimental tank was similar to the temperature in the home tank (median difference: ±0.2° C.). Finally, the shelter tube with the fish was returned to the home tank, where recording continued for 180 min. Throughout the 215 min of pre-treatment, treatment, and post-treatment, the recording of the EOD was interrupted only for a few seconds during which the fish was transferred between its home tank and the experimental tank. The order of the four treatment conditions was determined using a randomized complete block design. Each test or control experiment in a given fish was conducted on a different day.
Most of the time, fish in the shelter tube maintained an upright position, with their longitudinal axis parallel to the walls of the tube. Forward and backward swimming occurred frequently and appeared to be mediated primarily by high-frequency undulations of the anal fin. Sporadically, the fish made 180° turns around its vertical axis.
Neuro-Behavioral Assay extended to the monitoring of locomotor activity. The electric organ discharge (EOD) that is recorded as the assayed behavior contains not only information about the frequency and possible modulations of the EOD (‘chirps’) but also about the locomotor activity of the fish. […]

[2] = PubChem; cited from earlier work
[3] = test system: Apteronotus leptorhynchus; experiment: Neuro-behavioral assay: EOD amplitude; assay type: in vivo
Experimental: as §1, with “Differential recording of the fish's EOD was performed through a pair of stainless-steel electrodes built into the shelter tube (FIG. 1). During the experiment, the open ends of the tube were closed with a course plastic mesh netting to ensure that the fish remained close to the recording electrodes, thereby yielding high-quality recordings. This restraint is minimally invasive, as, particularly during daytime, the fish remain in shelter tubes with open ends for prolonged periods of time, often for several hours. The recorded EOD signal was amplified and digitized following a protocol established previously. To” for “To”

[4] = test system: zebrafish (Danio rerio); conditions: 60 μL/L eugenol, D. rerio; cited from earlier work
[5] = test system: red garra (Garra rufa); conditions: G. rufa, cited from earlier work
[6] = molecular target: T1, Nav 1.7 (Homo sapiens, UniProt Q15858); conditions: Nav 1.7-transfected CHO cells; cited from earlier work
T1 construct: host or cells: CHO cells (transfected)
T1 sequence (Q15858 whole entry): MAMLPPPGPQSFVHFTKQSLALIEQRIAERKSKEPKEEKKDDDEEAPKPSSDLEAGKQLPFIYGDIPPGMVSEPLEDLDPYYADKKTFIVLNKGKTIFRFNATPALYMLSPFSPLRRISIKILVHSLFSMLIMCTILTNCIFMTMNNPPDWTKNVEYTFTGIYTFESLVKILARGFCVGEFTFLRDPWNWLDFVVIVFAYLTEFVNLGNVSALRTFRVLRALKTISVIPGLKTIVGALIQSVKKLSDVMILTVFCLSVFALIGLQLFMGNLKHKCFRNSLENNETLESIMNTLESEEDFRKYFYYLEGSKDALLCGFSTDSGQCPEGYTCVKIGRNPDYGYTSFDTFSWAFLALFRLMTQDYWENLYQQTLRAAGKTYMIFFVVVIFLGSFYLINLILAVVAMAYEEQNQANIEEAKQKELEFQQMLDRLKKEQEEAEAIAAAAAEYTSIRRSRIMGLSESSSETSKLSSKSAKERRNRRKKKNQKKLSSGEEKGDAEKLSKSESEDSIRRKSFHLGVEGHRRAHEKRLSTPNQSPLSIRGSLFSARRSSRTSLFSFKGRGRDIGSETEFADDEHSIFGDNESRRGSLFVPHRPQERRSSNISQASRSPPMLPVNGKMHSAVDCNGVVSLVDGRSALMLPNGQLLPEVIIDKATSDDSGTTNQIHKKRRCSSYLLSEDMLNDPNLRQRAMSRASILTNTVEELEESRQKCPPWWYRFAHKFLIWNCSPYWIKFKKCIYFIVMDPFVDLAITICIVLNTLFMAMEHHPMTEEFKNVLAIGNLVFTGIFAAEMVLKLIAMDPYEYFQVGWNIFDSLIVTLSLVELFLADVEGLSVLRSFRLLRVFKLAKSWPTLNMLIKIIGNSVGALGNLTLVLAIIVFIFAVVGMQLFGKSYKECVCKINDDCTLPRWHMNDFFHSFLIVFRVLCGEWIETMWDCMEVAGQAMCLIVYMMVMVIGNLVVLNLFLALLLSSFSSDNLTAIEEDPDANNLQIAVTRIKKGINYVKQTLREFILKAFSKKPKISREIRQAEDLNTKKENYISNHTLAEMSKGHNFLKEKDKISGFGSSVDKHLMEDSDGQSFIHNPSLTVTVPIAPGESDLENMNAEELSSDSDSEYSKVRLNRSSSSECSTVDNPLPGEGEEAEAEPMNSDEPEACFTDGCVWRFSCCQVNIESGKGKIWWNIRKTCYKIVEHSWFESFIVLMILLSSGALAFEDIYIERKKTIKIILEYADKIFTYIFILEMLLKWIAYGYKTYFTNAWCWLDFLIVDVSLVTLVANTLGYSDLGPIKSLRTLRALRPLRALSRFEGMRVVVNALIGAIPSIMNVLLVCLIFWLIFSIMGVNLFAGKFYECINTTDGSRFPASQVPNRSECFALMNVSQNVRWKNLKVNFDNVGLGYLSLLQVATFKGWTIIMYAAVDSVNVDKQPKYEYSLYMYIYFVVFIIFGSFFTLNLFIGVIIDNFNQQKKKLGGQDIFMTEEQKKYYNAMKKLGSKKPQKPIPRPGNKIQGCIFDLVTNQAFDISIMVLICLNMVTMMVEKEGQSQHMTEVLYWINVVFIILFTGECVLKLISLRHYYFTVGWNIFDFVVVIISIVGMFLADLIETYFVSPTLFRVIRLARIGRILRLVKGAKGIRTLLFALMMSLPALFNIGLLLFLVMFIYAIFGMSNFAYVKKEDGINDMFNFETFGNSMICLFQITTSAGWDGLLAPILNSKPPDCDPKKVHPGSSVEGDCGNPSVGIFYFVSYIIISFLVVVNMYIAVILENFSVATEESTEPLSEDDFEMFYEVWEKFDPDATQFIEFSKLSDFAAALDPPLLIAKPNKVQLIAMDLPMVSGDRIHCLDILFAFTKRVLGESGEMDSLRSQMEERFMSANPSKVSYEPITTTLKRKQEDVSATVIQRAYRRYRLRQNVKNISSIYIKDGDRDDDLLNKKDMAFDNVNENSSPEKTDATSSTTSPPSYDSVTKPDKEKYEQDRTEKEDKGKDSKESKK

[7] = test system: GABAA receptors; conditions: receptors expressed in Xenopus oocytes; cited from earlier work
[8] = molecular target: T2, GABAA receptor subtype α1β2γ2 (Homo sapiens, UniProt P14867+P18507+P47870); conditions: human embryonic kidney 293 cells expressing α1β2γ2; cited from earlier work
T2 construct: host or cells: human embryonic kidney 293 cells (heterologous expression)
T2 sequence (P14867 28-456): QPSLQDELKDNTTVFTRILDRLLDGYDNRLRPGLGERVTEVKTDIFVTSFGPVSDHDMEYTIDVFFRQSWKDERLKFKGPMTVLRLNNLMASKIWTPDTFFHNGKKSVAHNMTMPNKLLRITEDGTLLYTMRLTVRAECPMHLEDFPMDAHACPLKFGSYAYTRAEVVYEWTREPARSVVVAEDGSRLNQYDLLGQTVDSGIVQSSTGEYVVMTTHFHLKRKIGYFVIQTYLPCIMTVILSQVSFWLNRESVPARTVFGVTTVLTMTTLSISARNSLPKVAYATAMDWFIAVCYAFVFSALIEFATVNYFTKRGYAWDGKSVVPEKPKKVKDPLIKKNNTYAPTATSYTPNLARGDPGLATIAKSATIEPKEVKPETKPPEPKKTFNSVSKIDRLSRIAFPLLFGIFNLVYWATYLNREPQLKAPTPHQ
T2 sequence (P47870 25-512 limits assumed): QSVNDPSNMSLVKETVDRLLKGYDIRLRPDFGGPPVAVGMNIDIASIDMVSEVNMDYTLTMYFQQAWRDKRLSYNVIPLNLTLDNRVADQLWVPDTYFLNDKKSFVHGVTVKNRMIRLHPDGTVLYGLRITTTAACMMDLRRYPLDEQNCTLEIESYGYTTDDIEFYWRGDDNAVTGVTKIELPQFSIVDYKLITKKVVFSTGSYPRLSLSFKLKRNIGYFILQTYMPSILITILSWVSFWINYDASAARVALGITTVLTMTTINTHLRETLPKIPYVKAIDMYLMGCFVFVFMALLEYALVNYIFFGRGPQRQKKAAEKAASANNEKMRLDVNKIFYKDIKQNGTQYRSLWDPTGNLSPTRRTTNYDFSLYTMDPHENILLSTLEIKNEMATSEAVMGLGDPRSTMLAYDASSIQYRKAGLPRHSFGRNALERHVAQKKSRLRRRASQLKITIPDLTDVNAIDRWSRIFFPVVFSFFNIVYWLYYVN
T2 sequence (P18507 40-475): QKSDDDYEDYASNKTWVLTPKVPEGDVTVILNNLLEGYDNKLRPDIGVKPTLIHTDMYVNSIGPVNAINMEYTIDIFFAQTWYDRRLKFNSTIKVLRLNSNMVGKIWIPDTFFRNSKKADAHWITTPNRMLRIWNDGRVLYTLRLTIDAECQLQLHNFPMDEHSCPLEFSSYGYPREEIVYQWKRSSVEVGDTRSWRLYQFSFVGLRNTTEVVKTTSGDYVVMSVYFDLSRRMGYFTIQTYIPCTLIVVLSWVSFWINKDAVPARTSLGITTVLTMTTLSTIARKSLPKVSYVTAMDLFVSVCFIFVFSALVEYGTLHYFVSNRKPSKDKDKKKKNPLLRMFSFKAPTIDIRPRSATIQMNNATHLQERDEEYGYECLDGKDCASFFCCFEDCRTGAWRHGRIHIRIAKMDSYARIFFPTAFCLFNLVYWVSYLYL

[9] = test system: GABAA current; conditions: rat trigeminal ganglia; cited from earlier work
[10] = test system: epileptiform field potentials and spreading depression; conditions: rat neocortical and hippocampal slices; cited from earlier work
[11] = 0.02% MS-222, 5 min exposure (FIG. 30)

With `CCOC(=O)c1cccc(N)c1` [MS-222, 3-aminobenzoic acid ethyl ester methanesulfonate] the “Time from start of exposure until locomotor activity drops dramatically” value [1, 11] was at most 2 min, the “Time to recovery of locomotor activity after return to home tank” value [1, 11] was at most 2 min and the “Treatment time until anal fin undulation and opercular movement ceased, including transfer to and from the beaker” value [1] was 9 to 15 min.
For `CCOC(N)=O` [urethane], the “Treatment time until anal fin undulation and opercular movement ceased, including transfer to and from the beaker” value [1] is given as 4 to 5 min and the “octanol-water partition coefficient log kow” value [2] is given as −0.15.
In the case of `C=CCc1ccc(O)c(OC)c1` [eugenol], the “Fish in which anal fin continued undulating throughout the 5-min exposure” value ([1]; 30 μL/L eugenol) is reported as 3 out of 8, the “Time after which body movements ceased (mean)” value ([1]; 30 μL/L eugenol, 8 fish) is reported as 1.8 min and the “Time after which body movements ceased (range)” value ([1]; 30 μL/L eugenol, 8 fish) is reported as 1 to 3 min. For the same compound, the “Time after which anal fin undulation stopped” value ([1]; 30 μL/L eugenol, the 5 fish in which it stopped) was 1 to 3 min, the “Time to anesthesia (total loss of equilibrium and cessation of any movement, including anal fin undulation)” value ([1]; 45 μL/L and 60 μl/L eugenol) was 1 to 4 min and the “Fish in which anal fin continued undulating throughout the 5-min exposure” value ([1]; 45 μL/L eugenol) was 1 out of 8. For the same compound, the “Time after which body movements ceased (mean)” value ([1]; 45 μL/L eugenol, 8 fish) was 1.4 min, the “Time after which body movements ceased (range)” value ([1]; 45 μL/L eugenol, 8 fish) was 1 to 2 min and the “Time after which anal fin ceased undulating” value ([1]; 45 μL/L eugenol, the 7 fish in which it ceased) was 1 to 3 min. The “Time after which body movements ceased (each fish)” value ([1]; 60 μL/L eugenol, 8 fish) was 1 min, the “Fish in which the EOD amplitude collapsed to markedly lower levels” value ([3]; 60 μL/L eugenol, 5 min) was 4 out of 8 and the “Time after end of exposure at which EOD amplitude reached baseline levels” value ([3]; eugenol, FIG. 19 recording) was “approximately 6 min”. The “Time after onset of anesthesia at which the fish's movements ceased (jittering of EOD amplitude minimal)” value ([3]; eugenol, FIG. 19 recording) was “Approximately 1.5 min”, the “octanol-water partition coefficient log kow” value [2] was 2.49 and the “Time to a similar stage of anesthesia” value [4] was at most 1.5 min. The “Time to total loss of equilibrium and movement and absence of reaction to external stimuli” value ([5]; 25 μL/L eugenol) was “approximately 3 min”, the “Time to total loss of equilibrium and movement and absence of reaction to external stimuli” value ([5]; 50 μL/L eugenol) was about 1.5 min and the “Binding to voltage-gated sodium channels” value [6] was “preferentially binds to such channels in the inactivated state”. For the same compound, the “Effect on GABAA-receptor response” value [7] was “potentiate GABAA-receptor response”, the “Effect on GABA-induced current” value [8] was “inhibits GABAA current in a reversible, dose-dependent manner” and the “Effect on GABA-induced current” value [9] was “inhibits GABAA current in a reversible, dose-dependent manner”. For the same compound, the “Effect on epileptiform field potentials and spreading depression” value [10] was “reversible and dose-dependent suppression”.
